Key:
[1] = system: OT-1 cells (antigen-specific CD8+ T cells); test: OT-1 in vivo assay (parenteral immunization): OT-1 cells in tissues by flow cytometry; design: species or system mice
OT-1 CD8+ T cells = test: OT-1 in vitro culture to generate GPR15+CD8+ T cells; assay type: cell-based, mouse; conditions: day 4 post activation
Protocol: OT-1 in vitro Culture: OT-1 splenocytes were pulsed for 1 hour with 1 μg OVA peptide (257-264) and cultured overnight in complete T cell (RPMI) media. The next day, CD8+ T cells were isolated using mouse CD8a+ T Cell Isolation Kit (Miltenyi) and cultured with various treatment conditions.
Various treatment conditions were tested for the efficiency of generating GPR15^+CD8^+ T cells. OT-1 splenocytes were pulsed for 1 hour with 1 μg OVA peptide (257-264) and cultured overnight in complete RPMI media. The next day, CD8^+ T cells were isolated using mouse CD8a^+ T Cell Isolation Kit (Miltenyi) and cultured with various treatment conditions. […] 4 days post activation. Plots were pre-gated on CD8a^+ cells. […] GPR15^+ T cells peaked around 4-5 days post activation. Cells were treated with IL-2+10-CL-BBQ+TGF-β1.

[2] = system: OT-1 cells (antigen-specific CD8+ T cells); test: OT-1 in vivo assay (parenteral immunization): OT-1 cells in tissues by flow cytometry; design: species or system mice; conditions: for CD8+ T cell trafficking to the small intestine / tissue residence: supplementation; for OT-1 effector cells in the colon and cecum: B6 mice, OVA+CpG s.c. day 0, Am80 500 nmol, 10-CL-BBQ 164 nmol s.c. day 0, 1, 2; for OT-1 effector cells in the colon and cecum / OT-1 cells in the small intestine: day 7; for OT-1 cells in the small intestine: same regimen
Protocol: OT-1 in vivo Assay (Parenteral Immunization): Mice were adoptively transferred with OT-1 cells, and subsequently immunized with […] chicken ovalbumin (OVA) and an adjuvant CpG-1668 (0.5 nmol). On day 0.1 and 2, mice were injected s.c. with solvent control (DMSO, 10% v/v in PEG-400), retinoic acid receptor agonist Am80 (500 nmol in PEG-400), AHR agonist 10-CL-BBQ (164 nmol in PEG-400), or Am80+10-CL-BBQ (same dose). At timepoints defined by individual experiments, tissues were harvested and analyzed.
Preparing intestinal samples for flow cytometry: Small intestine (duodenum to ileum) was dissected out and flushed. Peyer's patches and fat were removed, and the tissue was cut into 4-5 pieces, and flipped to expose the luminal surface. Colon and cecum were dissected out, flushed and cut open longitudinally.
(§1) Cell Count and Flow Cytometry and Cell Count: For cell counting, samples were diluted and counted on a BD Accuri C6 Plus cytometer. For flow cytometry, samples were run on a Beckman CytoFLEX cytometer, and analysis was done using Flow Jo software V10.
The experimental approach is shown in the schematic in FIG. 2. Antigen-specific CD8+ T cells (OT-1 cells, recognizing a peptide within the chicken ovalbumin protein) were adoptively transferred (1×10^5 cells) to B6 recipient mice on day −1, and B6 recipients were vaccinated subcutaneously (s.c.) on day 0 with 100 μg chicken ovalbumin (OVA) and an adjuvant CpG-1668 (0.5 nmol). On day 0.1 and 2, mice were injected subcutaneously with solvent control (DMSO, 10% v/v in PEG-400), retinoic acid receptor agonist Am80 (500 nmol in PEG-400), AHR agonist 10-CL-BBQ (164 nmol in PEG-400), or Am80+10-CL-BBQ (same dose). Tissues were harvest on day 7 and analyzed by flow cytometry.

[3] = system: α4β7, GPR15 and CCR9 on OT-1 cells; test: OT-1 in vivo assay: expression of gut homing molecules on OT-1 cells in blood and draining lymph nodes; design: species or system mice; conditions: for α4β7 and CCR9 expression: subcutaneous vaccination model, supplementation; for GPR15 on OT-1 cells (effector CD8+ T cells): day 4 blood, L-KYN 500 nmol in PEG-400
Protocol: At timepoints defined by individual experiments, tissues were harvested and analyzed.
as §1
The experimental approach is shown in the schematic in FIG. 2. […] Tissues were harvest on day 7 and analyzed by flow cytometry.

OT-1 cells = test: Short-term competitive homing of OT-1 cells; assay type: in vivo, mice; conditions: 5×10^6 cells from each treatment transferred into naïve B6 recipients; without Am80
Protocol: Short-term Competitive Homing: OT-1 cells, either in vitro or in vivo generated, were distinguished by congenic markers CD45.1/CD45.2, mixed at around 1:1 ratio and adoptively transferred into recipient animals. At 20-24 hours post transfer, mice were sacrificed, and tissues were harvested for analysis. Ratio of transferred cells were obtained, and homing index was calculated.
Briefly, two GFP+OT-1 transgenic mice with or without expression of the congenic marker CD45.1 were used per experiment (mouse A and mouse B), and OT-1 cells were isolated from their spleens. OT-1 cells from different mice ([A] and [B]) were subjected to different treatments (A and B, including culture, genetic manipulation, in vivo activation and re-harvesting, etc). The cells were then mixed at an around 1:1 ratio and injected into a B6 recipient (GFP−). At timepoints (determined for each experiment), with or without additional in vivo treatments (determined by each experiment), tissues were analyzed by flow cytometry and the ratio of [A] and [B] in each tissue was obtained. Homing index and normalized homing index (see equation) were calculated.
As a supplementation to in vitro approaches, the gut homing capacity of in vivo generated effector T cells was tested in the disclosed vaccination strategy. […]

AHR = test: CRISPR knockout of AHR in OT-1 cells, co-transfer with control cells; assay type: in vivo, mouse
Source text: CRISPR Knockout of AHR and GPR15: Naïve GFP+OT-1 cells were isolated with mouse CD8a+ T Cell Isolation Kit (Miltenyi) and nucleofected with Cas9 protein, complexed with either control (CD19) gRNA, or GPR15 gRNA. gRNAs were designed using Synthego online tool and synthesized by Synthego. The procedure was done using a Lonza nucleofector, with the P3 Primary cell Kit. Cells were distinguished based on expression of congenic marker CD45.1 and co-transferred into recipient mice. Recipient mice were immunized, and tissues were analyzed at different timepoints.
Loss of AHR abrogated ligand-depended upregulation of GPR15. Naïve GFP+OT-1 cells were nucleofected with Cas9 protein, complexed with either control (CD19) gRNA, or AHR gRNA. Transfected cells were distinguished based on expression of congenic marker CD45.1 and co-transferred into recipient mice. Recipient mice were immunized with OVA+CpG, and injected with DMSO, Am80, 10-CL-BBQ or Am80+10-CL-BBQ (same dose and regimen as previously described). Flow cytometry plots, gated on OT-1 cells. […] Quantification is shown of GPR15+, α4β7+ and CCR9+ cells, percentage out of OT-1 cells in respective groups (FIGS. 21B-21D). […] Control cells used were CD45.1^− and […] cells were CD45.1+.

[4] = 10 nM ATRA added concurrently with IL-2+TGF-β1+10-CL-BBQ

Compound: FC(F)(F)c1ccc(Nc2nccc(-c3cccc(Cl)c3)n2)cc1 [VAF347]
- colon trafficking (OT-1 cells out of total CD8+ T cells) ([1]; 250 nmol in PEG-400): increased colon trafficking but at a lower efficacy than 10-CL-BBQ

Compound: CC1=C(/C=C/C(C)=C/C=C/C(C)=C/C(=O)O)C(C)(C)CCC1 [ATRA, 3,7-Dimethyl-9-(2,6,6-trimethyl-1-cyclohexen-1-yl)-2E,4E,6E,8E,-nonatetraenoic acid]
- α4β7^high GPR15+ population (OT-1 CD8+ T cells; 10 nM ATRA added 24-48 hours after IL-2+TGF-β1+10-CL-BBQ): enabled the generation of an α4β7^high GPR15+ population
- GPR15 expression (OT-1 CD8+ T cells; [4]): completely abrogated
- trafficking phenotype (α4β7, CCR9) (OT-1 CD8+ T cells; [4]): skewed cells towards a small intestine trafficking phenotype
- CD8+ T cell trafficking to the small intestine ([2]; subcutaneous vaccination model): increased
- tissue residence ([2]; subcutaneous vaccination model): promoted
- α4β7 and CCR9 expression [3]: increased

Compound: Nc1ccccc1C(=O)C[C@H](N)C(=O)O [L-KYN, L-kynurenine]
- colon trafficking (OT-1 cells out of total CD8+ T cells) ([2]; alone): did not increase
- colon trafficking (OT-1 cells out of total CD8+ T cells) ([2]; in combination with Am80): did not increase
- GPR15 on OT-1 cells (effector CD8+ T cells) [3]: did not increase

Compound: Cc1ccccc1N=Nc1ccc(NC(=O)c2ccnn2C)c(C)c1 [CH-223191]
- effects of 10-CL-BBQ on colon trafficking ([1]; 250 nmol in PEG-400, given with 10-CL-BBQ): antagonized

Compound: O=c1c2cccc3cccc(c32)c2nc3ccc(Cl)cc3n12 [10-CL-BBQ, 10-Chloro-7H-benzimidazo[2,1-a]benzl[de]isoquinolin-7-one]
- trafficking of in vitro cultured cells to small and large intestine (OT-1 cells): did not constitute trafficking
- GPR15 on OT-1 cells nucleofected with AHR gRNA (AHR; day 5 blood, compared to control gRNA cells): not 10-CL-BBQ dependent upregulation
- representation of AHR KO cells in the colon and cecum (ratio [Ctrl] to [AHR knockout], normalized to spleen) (AHR; day 7 post immunization): under-represented
- OT-1 effector cells in the colon and cecum [2]: some increase
- OT-1 cells in the small intestine [2]: no effect
- GPR15 expression on OT-1 cells in the blood ([3]; blood, day 4-6): most robust
- GPR15 expression on CD8a+ cells of the recipient (mostly naïve) ([3]; blood, day 5): did not affect
- GPR15 on adoptively transferred OT-1 cells (effector phase) ([3]; blood, day 5): up-regulated
- GPR15 on OT-1 cells (effector CD8+ T cells) [3]: significantly up-regulated

Compound: CC1(C)CCC(C)(C)c2cc(NC(=O)c3ccc(C(=O)O)cc3)ccc21 [Am80, 4-[[(5,6,7,8-Tetrahydro-5,5,8,8-tetramethyl-2-naphthalenyl)amino]carbonyl]benzoic acid]
- OT-1 effector cells in the colon and cecum [2]: some increase
- OT-1 cells in the small intestine [2]: increased
- optimal trafficking to the large intestine ([2]; subcutaneous vaccination model): not sufficient
- CD8+ T cell trafficking to the small intestine ([2]; subcutaneous vaccination model): increased
- tissue residence ([2]; subcutaneous vaccination model): promoted
- α4β7 and CCR9 expression [3]: increased

From patent publication US20250345316A1, “METHODS OF INCREASING LYMPHOCYTE TRAFFICKING TO THE COLON BY STIMULATING RETINOIC ACID RECEPTORS AND ARYL HYDROCARBON RECEPTORS” (President and Fellows of Harvard College, priority 2024, published 2025)
